Measurements as given in patent US20200190592A1, “PME-1 AS A BIOMARKER TO PREDICT AND DIAGNOSE AN INCREASED RISK OF ENDOMETRIAL CANCER AND GENE SILENCING OF PME-1 TO INHIBIT EPITHELIAL TO MESENCHYMAL TRANSITION” (Medical Diagnostic Laboratories, L.L.C., priority 2018, published 2020).
Each block holds one compound with its values, some of them ahead of it.

What was measured:
[1] = biological target: T1, recombinant PME-1_des3 (Homo sapiens, UniProt Q9Y570); test: Thermal melt (thermal shift) assay; assay type: binding
T1 sequence (Q9Y570 1-383 limits assumed): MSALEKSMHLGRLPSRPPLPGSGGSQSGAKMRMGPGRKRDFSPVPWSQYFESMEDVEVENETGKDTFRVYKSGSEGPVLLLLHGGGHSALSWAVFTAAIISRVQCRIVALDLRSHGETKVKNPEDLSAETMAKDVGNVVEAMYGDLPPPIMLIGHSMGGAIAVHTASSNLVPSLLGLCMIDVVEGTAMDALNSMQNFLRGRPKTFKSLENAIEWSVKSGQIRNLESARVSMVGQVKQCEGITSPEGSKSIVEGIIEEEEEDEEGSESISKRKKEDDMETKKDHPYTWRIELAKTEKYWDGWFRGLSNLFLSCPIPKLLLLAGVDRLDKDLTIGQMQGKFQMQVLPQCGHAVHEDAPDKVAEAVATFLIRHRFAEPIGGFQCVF
Procedure: There are several commercially available covalent PME-1 inhibitors that we have analyzed as potential endometrial cancer therapeutics. To confirm that the inhibitors directly bind PME-1, we completed a thermal melt assay. One micromole (1 μmole) of recombinant PME-1_des3, of which the last 3 amino acids are deleted, were pre-incubated with SYBR orange in the presence of 50 μM ABL-127 (a potent covalent PME-1 inhibitor, squares) or 0.05% DMSO (vehicle, circles) for 10 minutes (FIG. 25) at 37° C. We then performed a thermal gradient, increasing the temperature by 2° C. each minute from 37° C. to 95° C. and fluorescent signal was detected at 492-601 nm on a thermal cycler. The increase in Tm from ˜55° C. (PME-1+DMSO, circles) to ˜65° C. (PME-1+ABL-127, squares) indicated thermal stabilization of the PME-1 protein via direct binding of the ABL-127 inhibitor (FIG. 25).
The assay was completed by first conducting a 10 min pre-incubation of one μmole of recombinant PME-1des3 with 50 μM ABL127 (Sigma) or vehicle (0.05% DMSO) in the presence of SYBR Orange (1:1,000, v/v, Sigma) at 37° C. in 1×NEB buffer 2 (50 mM NaCl, 10 mM Tris-HCl, 10 mM MgCl2, 1 mM DTT, pH 7.9 at 25° C.), a thermal gradient was performed increasing temperature by 2° C. per minute increments from 37° to 95° C. and fluorescence (492 nm-610 nm) was acquired on a thermal cycler Mx3005P (Stratagene).

[2] = system: Ishikawa endometrial cancer cells; test: Foci formation assay in Ishikawa cells; assay type: cell-based, human; conditions: DMSO set to 100%
Procedure: This study was completed in Ishikawa endometrial cancer cells.
1,000 cells were plated in a six well tissue culture dish in selection media (to include 5 μg/ml puromycin) (InvivoGen). Cells were allowed to adhere and grow in a 5% CO2, 37° C. incubator for 10 to 14 days. […] Cells were stained with 1% crystal violet (Sigma Aldrich) for five minutes and rinsed with PBS. Colonies were counted and data is presented as the percentage of change compared to the control. All Experiments were repeated at least three times.

[3] = system: Ishikawa cells; test: Trans-well migration assay; assay type: cell-based, human; conditions: 24 hr, through collagen towards 30% FBS, vs DMSO
Procedure: We next asked if PME-1 inhibition led to decreased cell migration by completing a trans-well migration assay. Cells were synchronized for 24 hours in media containing 0% FBS. For this experiment, DMSO was again used as the vehicle control and Ishikawa cells were treated with DMSO (control) or 50 nM ABL-127 or 20 μM AMZ-30 for 24 hr and were allowed to migrate through a collagen-coated well towards the bottom chamber, containing media with 30% FBS.
The assay was completed with ECC-1 endometrial carcinoma cell lines following kit instructions Cultrex 96 Well Collagen IV Cell Invasion Assay (cat #3458-096-K). Briefly, cells were serum starved for 24 hours prior to experimentation, then counted and put into the top chamber of a collagen type IV coated Transwell membrane at a concentration of 1×10^6 cells/well in 0% FBS. The bottom chamber contained 30% FBS. Cells were allowed to invade at 37° C. humid chamber incubator for 24 hours. Cells that invaded were analyzed using the kit provided Calcein-AM and fluorescence was read using FluoStar Galaxy.

[4] = biological target: protein phosphatase 2A (PP2A), endogenous in RL95-2 cells; test: cell-based or functional assay
[5] = system: RL95-2 cells; test: Foci forming assay in RL95-2 cells; assay type: cell-based, human
Procedure: A foci forming assay was used in this study to monitor cell growth. Equal amounts of cells were plated and they were allowed to grow for a determined period of time (see Materials and Methods section for details). The foci that were formed were then stained with the crystal violet dye. Cells were washed […] with PBS prior to visualization. Numbers of foci were counted and results were averaged among different experiments.
To determine if the loss of active PME-1 accounted for the observed decrease in foci formation, we first treated RL95-2 cells with siRNA against the 3′-UTR of PPME1 to decrease endogenous levels of PME-1. […] The S156A PME-1 mutant is not capable of demethylating its target, PP2A.
1,000 cells were plated in a six well tissue culture dish in selection media (to include 5 μg/ml puromycin) (InvivoGen). Cells were allowed to adhere and grow in a 5% CO2, 37° C. incubator for 10 to 14 days. Media was replaced every fourth day. Cells were stained with 1% crystal violet (Sigma Aldrich) for five minutes and rinsed with PBS. Colonies were counted and data is presented as the percentage of change compared to the control. All Experiments were repeated at least three times.

[6] = system: RL95-2 cells; test: Colony forming / invasive growth assay in Matrigel; assay type: cell-based, human; conditions: RL95-2 in Matrigel, addition of TGF-β (10 ng/ml)
Procedure: To determine if PME-1 contributes to the more invasive and metastatic phenotypes, we performed a colony forming assay in matrigel.
The 3D On Top Matrigel Assay was completed in 24 well dishes as described previously {Lee, 2007 #1577}. Briefly, the bottoms of 24 well dishes were coated with 50 μl BD Matrigel Basement Matrix Phenol Red Free (BD Biosciences cat. #356237) and allowed to solidify at 37° C. 10^5 cells were suspended in 250 μl chilled medium containing either 10 ng/ml of TGF-b or vehicle and allowed to settle at 37° C. for 30 minutes. Chilled medium containing 10% of Matrigel was added by pipetting gently down the sidewall of the well and incubated at 37° C. for ten days changing top medium every second day. Colony counts were performed on the tenth day, averages were taken from three fields of view using a 10× objective. Experiment was repeated three times.

[7] = system: PPME1; test: qRT-PCR of PPME1 (PME-1) expression in RL95-2 cells; assay type: cell-based, human; conditions: TGF-β 24 hours, control cells and +PME-1 cells, normalized to GAPDH
Procedure: In this study, we transfected RL95-2 cells to express empty vector (Control), over-expressing PME-1 (+PME-1) or expressing shRNA against PME-1 (−PME-1) followed by serum starvation for 24 hours. Afterwards, either vehicle or TGF-β treatment was performed at the end of the 24 hours. TGF-β was used to induce cells to initiate the EMT program. Gene expression analysis was conducted using quantitative real-time PCR.
Using RL95-2 endometrial cancer cells, we overexpressed PME-1 (FIG. 21A) or depleted PME-1 with shRNA (FIG. 21B) and confirmed that PME-1 was appropriately expressed.
Total RNA was extracted with Qiagen RNAEasy kit from RL95-2 cells. cDNA was synthesized using 500 ng-1 μg of RNA and SuperScript VILO c-DNA mix (Life Technologies). Taqman probes and PCR-mix were purchased from Life Technologies. All samples were run in triplicates. Results are representative of three independent experiments in which genes of interest were normalized to the house-keeping gene, 18S or GAPDH, where fold-change was calculated using the ddCt method.

[8] = system: PME-1; test: Western blot of PME-1 protein in RL95-2 cells; assay type: cell-based, human; conditions: GAPDH loading control
Excerpt: We prepared RL95-2 cell lines expressing empty vector (control), over-expressing PME-1 (+PME-1), or expressing shRNA against PPME1, the gene that codes for PME-1 protein (−PME-1). Using these cells, we confirmed the appropriate level of PME-1 via real-time RT-PCR (data not shown) and Western blot analysis (FIG. 8). GAPDH was used as a loading control.
We also prepared two different shRNAs targeted against PME-1.
Lentivirus was produced in HEK293T cell lines with pLKO shRN vectors (Thermo Scientific, cat. no. RHS4533; Waltham, Mass.) and pCDH-CuO-GFP-Puro vectors (System Biosciences, Inc., cat. no. QM513B-1; Mountain View, Calif.) with pPACKH1 packaging plasmid (System Biosciences, Inc., cat, no. LV050A-1). shRNA sequences are in the Table 2. Lentivirus was collected and concentrated with Peg-IT concentrating solution (System Biosciences, Inc.). 5×10^6 ifu/ml lentivirus was added to cell cultures with growth media and 8 μg/ml PolyBrene (Sigma Aldrich). Media was changed to full growth media after 24 hrs and to selection media containing antibiotic after 48 hrs (5 μg/ml puromycin) (Invivogen) for 10 days.
15 μg of protein was used for western analysis. […]

Compound: COC(=O)N1C(=O)C(c2ccccc2)(C2CCCC2)N1C(=O)OC (stereo in doubt) [ABL-127, (3R)-Dimethyl 3-cyclopentyl-4-oxo-3-phenyl-1,2-diazetidine-1,2,-dicarboxylate]
Tm ([1]; 50 μM ABL-127, 10 min pre-incubation at 37° C., PME-1+DMSO ˜55° C.): ~65 °C | melting temperature (Tm) and thermal stability of PME-1 ([1]; binding of ABL-127 vs vehicle): increases | decrease in the amount of foci formed ([2]; 50 nM every 2-3 days for 10 days): ~50% | percentage of cells capable of migrating ([3]; 50 nM): dramatic decrease

Compound: N#C/C(=C\c1cccn1S(=O)(=O)c1cccc([N+](=O)[O-])c1)S(=O)(=O)c1ccc(F)cc1 [AMZ-30, (E)-2-(4-Fluorophenylsulfonyl)-3-(1-(3-nitrophenylsulfonyl)-1H-pyrrol-2-yl)-acrylonitrile]
decrease in the amount of foci formed ([2]; 25 μM every 2-3 days for 10 days): ~50% | percentage of cells capable of migrating ([3]; 20 μM): dramatic decrease

PP2A activity (phosphatase assay) after shRNA depletion of PME-1 in RL95-2 cells [4]: 30 fold
Compound: PME-1 (endogenous, RL95-2 cells) (from UniProt Q9Y570 2-386) (enzyme)

PP2A activity (phosphatase assay) after over-expression of PME-1 in RL95-2 cells [4]: 90 % decrease
Compound: PME-1 over-expressed in RL95-2 cells (+PME-1) (from UniProt Q9Y570 1-386) (enzyme)

Compound: PPME1 siRNA no. 2: siRNA, SEQ ID NO: 5: GTG GAT AGC ATC ACA AGA A, targets 3′-UTR (guide GTGGATAGCATCACAAGAA; listed as DNA, chemistry not given here; listed as Homo sapiens)
decrease in foci formed ([5]; RL95-2, siRNA followed by empty vector, vs control siRNA with empty vector): 40% | reduction in foci formation ([5]; RL95-2, siRNA plus over-expressed S156A mutant PME-1): 40%

Compound: TGF-β [reference compound]
colony number [6]: overall decrease | increase in PME-1 expression [7]: ~2 fold

Compound: shPPME1 no. 1: shRNA targeting PPME1, SEQ ID NO: 1: GTACAGCTATGGATGCACTTA, bp 554-574 (guide GTACAGCTATGGATGCACTTA; listed as Homo sapiens)
PME-1 levels via Western blot analysis [8]: significantly decreased
